Assay [1] addresses T1, human β-Secretase (Homo sapiens (Human), UniProt P56817). The experiment in a line: Diluted TR-FRET assay. The settings on record: 50 times less enzyme, 6.5 h reaction time; read-out: IC50 in TR-FRET assay (IC50 from the diluted FRET assay). Format: biochemical. Here is the method:
(§1) The cDNA for the soluble part of the human β-Secretase (AA 1-AA 460) was cloned using the ASP2-Fc10-1-IRES-GFP-neoK mammalian expression vector. The gene was fused to the Fc domain of IgG1 (affinity tag) and stably cloned into HEK 293 cells.
(§2) The enzyme (truncated form) was diluted to 6 μg/mL (stock 1.3 mg/mL) and the TruPoint BACE1 Substrate to 200 nM (stock 120 μM) in reaction buffer (NaAcetate, chaps, triton x-100, EDTA pH4.5). Enzyme and compound in dimethylsulphoxide (final DMSO concentration 5%) was mixed and pre-incubated for 10 minutes at RT. Substrate was then added and the reaction was incubated for 15 minutes at RT. The reaction was stopped with the addition of 0.35 vol Stop solution (NaAcetate, pH 9). The fluorescence of the product was measured on a Victor II plate reader with excitation wavelengths of 340-485 nm and emission wavelengths of 590-615 nm. […] The dimethylsulphoxide control, instead of test compound, defined the 100% activity level and 0% activity was defined by wells lacking enzyme (replaced with reaction buffer) or by a saturating dose of a known inhibitor, 2-amino-6-[3-(3-methoxyphenyl)phenyl]-3,6-dimethyl-5H-pyrimidin-4-one.
Compounds with a high affinity were further tested in a diluted TR-FRET assay, conditions as described above for the TR-FRET assay, but with 50 times less enzyme and a 6.5 h long reaction time at r.t. in the dark.

For assay [2], the system named is sAPPβ release, SH-SY5Y cells. The experiment in a line: sAPPβ release assay. Format: cell-based. Conditions: 17 h incubation. The method, then:
Thaw cells and seed at a conc. of around 10000 cells/well in DMEM/F-12 with Glutamax, 10% FCS and 1% non-essential amino acids to a 384-well tissue culture treated plate, […] cell susp/well. The cell plates were then incubated for 7-24 h at 37° C., 5% CO2. The cell medium was removed, followed by addition of 30 μL compound diluted in DMEM/F-12 with Glutamax, 10% FCS, 1% non-essential amino acids and 1% PeSt to a final conc. of 1% DMSO. The compounds were incubated with the cells for 17 h (overnight) at 37° C., 5% CO2. Meso Scale Discovery (MSD) plates were used for the detection of sAPPβ release. MSD sAPPβ plates were blocked in 1% BSA in Tris wash buffer (40 μL/well) for 1 h on shake at r.t. and washed 1 time in Tris wash buffer (40 μL/well). 20 μL of medium was transferred to the pre-blocked and washed MSD sAPPβ microplates, and the cell plates were further used in an ATP assay to measure cytotoxicity. The MSD plates were incubated with shaking at r.t. for 2 h and the media discarded. 10 μL detection antibody was added (1 nM) per well followed by incubation with shaking at r.t. for 2 h and then discarded. 40 μL Read Buffer was added per well and the plates were read in a SECTOR Imager.

Assay [3] has as its target T1, human β-Secretase. The experiment in a line: TR-FRET assay. Format: biochemical. The method, then: The β-secretase enzyme used in the TR-FRET is prepared as follows:
as §1, §2

SMILES strings stand for the structures.

These results are taken from patent US9000183B2, “Cyclohexane-1,2′-indene-1′,2″-imidazol compounds and their use as BACE inhibitors” (AstraZeneca AB, priority 2012, dated 2015).

T1 sequence (P56817 22-460): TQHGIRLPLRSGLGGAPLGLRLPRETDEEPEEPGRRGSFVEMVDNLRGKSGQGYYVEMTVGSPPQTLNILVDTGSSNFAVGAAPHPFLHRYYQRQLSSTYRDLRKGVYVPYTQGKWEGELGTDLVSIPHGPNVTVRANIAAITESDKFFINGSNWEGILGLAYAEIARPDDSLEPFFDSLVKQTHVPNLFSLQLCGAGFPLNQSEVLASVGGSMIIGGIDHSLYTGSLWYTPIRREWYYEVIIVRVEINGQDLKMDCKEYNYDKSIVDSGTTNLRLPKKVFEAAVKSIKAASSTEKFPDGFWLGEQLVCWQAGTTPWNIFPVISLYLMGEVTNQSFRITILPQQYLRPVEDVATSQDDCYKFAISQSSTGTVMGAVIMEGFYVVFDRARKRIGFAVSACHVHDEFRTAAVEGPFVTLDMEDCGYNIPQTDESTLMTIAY

Turning to `CO[C@H]1CC[C@]2(CC1)Cc1cc(F)c(-c3cc(Cl)cc(C#N)c3)cc1[C@@]21N=C(C)C(N)=N1` (single isomer, unassigned; isomer 1) [6 Isomer 1], the IC50 on human β-Secretase [1] is 2.4 nM.

For the compound `CO[C@H]1CC[C@]2(CC1)Cc1cc(F)c(-c3cc(F)cc(C#N)c3)cc1[C@@]21N=C(C)C(N)=N1` (single isomer, unassigned; isomer 1) [9 Isomer 1], the values for the IC50 (in assay [2]; on human β-Secretase [1]) were 7.4 nM and 13 nM, respectively.

As for `CO[C@H]1CC[C@]2(CC1)Cc1cc(F)c(-c3cc(Cl)cc(C#N)c3)cc1[C@]21N=C(C)C(N)=N1` (single isomer, unassigned; isomer 2) [6 Isomer 2], the IC50 against human β-Secretase [3] was greater than 4300 nM.

On human β-Secretase [3], `CO[C@H]1CC[C@]2(CC1)Cc1cc(F)c(-c3cc(F)cc(C#N)c3)cc1[C@]21N=C(C)C(N)=N1` (single isomer, unassigned; isomer 2) [9 Isomer 2] showed an IC50 greater than 5000 nM.

As to `CO[C@H]1CC[C@]2(CC1)Cc1cc(C)c(Br)cc1C21N=C(C)C(N)=N1` (some centres unmarked) [Example 1, (1r,4r)-6′-Bromo-4-methoxy-5′,5″-dimethyl-3′H-dispiro[cyclohexane-1,2′-indene-1′,2″-imidazol]-4″-amine], at human β-Secretase [3], the IC50 was determined as 1660 nM.

Take `CC#Cc1cncc(-c2cc3c(cc2C)C[C@]2(CC[C@@H](OC)CC2)C32N=C(C)C(N)=N2)c1` (some centres unmarked) [Example 2, (1r,4r)-4-Methoxy-5′,5″-dimethyl-6′-[5-(prop-1-yn-1-yl)pyridin-3-yl]-3′H-dispiro[cyclohexane-1,2′-indene-1′,2″-imidazol]-4″-amine]: the values for the IC50 (in assay [2] (Homo sapiens); on human β-Secretase [1]) were 17 nM and 15 nM, respectively.

In the case of `CO[C@H]1CC[C@]2(CC1)Cc1cc(C)c(-c3cc(Cl)cc(C#N)c3)cc1C21N=C(C)C(N)=N1` (some centres unmarked) [Example 3, 3-[(1r,4r)-4″-Amino-4-methoxy-5′,5″-dimethyl-3′H-dispiro[cyclohexane-1,2′-indene-1′,2″-imidazol]-6′-yl]-5-chlorobenzonitrile], the results for the IC50 (in assay [2] (Homo sapiens); on human β-Secretase [1]) were 12 nM and 24 nM, respectively.

Take `COC1CCC2(CC1)Cc1cc(F)c(Br)cc1C21N=C(C)C(N)=N1` (centres unmarked) [Example 4, 6′-Bromo-5′-fluoro-4-methoxy-5″-methyl-3′H-dispiro[cyclohexane-1,2′-indene-1′,2″-imidazol]-4″-amine]: on human β-Secretase [3], it took 516 nM to reach half-maximal inhibition (IC50).

At human β-Secretase [3], `CO[C@H]1CC[C@]2(CC1)Cc1cc(F)c(-c3cc(Cl)cc(C#N)c3)cc1C21N=C(C)C(N)=N1` (some centres unmarked) [Example 5, 3-[(1s,4s)-4″-Amino-5′-fluoro-4-methoxy-5″-methyl-3′H-dispiro[cyclohexane-1,2′-indene-1′,2″-imidazol]-6′-yl]-5-chlorobenzonitrile] returned an IC50 of 23 nM.

Take `CO[C@H]1CC[C@]2(CC1)Cc1cc(F)c(-c3cncc(Cl)c3)cc1C21N=C(C)C(N)=N1` (some centres unmarked) [Example 7, (1r,4r)-6′-(5-Chloropyridin-3-yl)-5′-fluoro-4-methoxy-5″-methyl-3′H-dispiro[cyclohexane-1,2′-indene-1′,2″-imidazol]-4″-amine]: the IC50 in assay [2] (Homo sapiens) was 3 nM; at human β-Secretase [3], 36 nM.

With `CO[C@H]1CC[C@]2(CC1)Cc1cc(F)c(-c3cc(F)cc(C#N)c3)cc1C21N=C(C)C(N)=N1` (some centres unmarked) [Example 8, 3-[(1r,4r)-4″-Amino-5′-fluoro-4-methoxy-5″-methyl-3′H-dispiro[cyclohexane-1,2′-indene-1′,2″-imidazol]-6′-yl]-5-fluorobenzonitrile], the IC50 was determined as 4.8 nM in assay [2] (Homo sapiens) and 23 nM on human β-Secretase [3].

Turning to `CO[C@H]1CC[C@]2(CC1)Cc1cc(F)c(OCCCF)cc1C21N=C(C)C(N)=N1` (some centres unmarked) [Example 10, 5′-Fluoro-6′-(3-fluoropropoxy)-4-methoxy-5″-methyl-3′H-dispiro[cyclohexane-1,2′-indene-1′,2″-imidazol]-4″-amine], on human β-Secretase [3], the IC50 amounted to 39 nM.
